Measured values published in the NIST ThermoML archive (doi:10.1016/j.tca.2013.03.025).
Several values for one entry are separate records, joined by “and”; a condition that tells them apart may be missing. Identical values can stand only once. Numbers after ± are expanded uncertainties.

Legend:
[1] = 101 kPa, Liquid; for viscosity: Concentric cylinders viscometry; for mass density: Vibrating tube method
[2] = refractive index (Na D-line) (dimensionless); details: 101.33 kPa, Liquid, Standard Abbe refractometry
[3] = xn = mol fraction of the nth substance listed; details: 101 kPa, Liquid, x2 = 0; for viscosity: Concentric cylinders viscometry; for mass density: Vibrating tube method
[4] = refractive index (Na D-line) (dimensionless); xn = mol fraction of the nth substance listed; details: 101 kPa, Liquid, Standard Abbe refractometry, x2 = 0

## CCCO [propan-1-ol]
[1]; 288.15 K
  viscosity: 2.514 ± 0.024 mPa·s
  mass density: 807.752 ± 0.14 kg/m3
[1]; 293.15 K
  viscosity: 2.208 ± 0.021 mPa·s
  mass density: 803.767 ± 0.14 kg/m3
[1]; 298.15 K
  viscosity: 1.95 ± 0.019 mPa·s
  mass density: 799.755 ± 0.14 kg/m3
[1]; 303.15 K
  viscosity: 1.727 ± 0.017 mPa·s
  mass density: 795.717 ± 0.14 kg/m3
[1]; 308.15 K
  viscosity: 1.542 ± 0.015 mPa·s
  mass density: 791.638 ± 0.14 kg/m3
[1]; 313.15 K
  viscosity: 1.378 ± 0.014 mPa·s
  mass density: 787.521 ± 0.14 kg/m3
[1]; 318.15 K
  viscosity: 1.236 ± 0.013 mPa·s
  mass density: 783.357 ± 0.15 kg/m3
[1]; 323.15 K
  viscosity: 1.124 ± 0.012 mPa·s
  mass density: 779.137 ± 0.15 kg/m3
[2]; 288.15 K
  refractive index: 1.38751 ± 0.00033
[2]; 293.15 K
  refractive index: 1.38543 ± 0.00033
[2]; 298.15 K
  refractive index: 1.3834 ± 0.00033
[2]; 303.15 K
  refractive index: 1.38137 ± 0.00033
[2]; 308.15 K
  refractive index: 1.37918 ± 0.00033
[2]; 313.15 K
  refractive index: 1.37702 ± 0.00033
[2]; 318.15 K
  refractive index: 1.37482 ± 0.00033
[2]; 323.15 K
  refractive index: 1.37262 ± 0.00033

## CC(O)CO (stereo not drawn) [1,2-propanediol]
[1]; 288.15 K
  viscosity: 82.54 ± 0.87 mPa·s
  mass density: 1039.87 ± 0.1 kg/m3
[1]; 293.15 K
  viscosity: 59.62 ± 0.52 mPa·s
  mass density: 1036.25 ± 0.099 kg/m3
[1]; 298.15 K
  viscosity: 44.03 ± 0.39 mPa·s
  mass density: 1032.56 ± 0.097 kg/m3
[1]; 303.15 K
  viscosity: 33.16 ± 0.3 mPa·s
  mass density: 1028.88 ± 0.095 kg/m3
[1]; 308.15 K
  viscosity: 25.45 ± 0.23 mPa·s
  mass density: 1025.14 ± 0.093 kg/m3
[1]; 313.15 K
  viscosity: 19.85 ± 0.18 mPa·s
  mass density: 1021.35 ± 0.092 kg/m3
[1]; 318.15 K
  viscosity: 15.73 ± 0.14 mPa·s
  mass density: 1017.52 ± 0.09 kg/m3
[1]; 323.15 K
  viscosity: 12.64 ± 0.11 mPa·s
  mass density: 1013.66 ± 0.088 kg/m3
[2]; 288.15 K
  refractive index: 1.43437 ± 0.00033
[2]; 293.15 K
  refractive index: 1.4327 ± 0.00033
[2]; 298.15 K
  refractive index: 1.43102 ± 0.00033
[2]; 303.15 K
  refractive index: 1.42934 ± 0.00033
[2]; 308.15 K
  refractive index: 1.42764 ± 0.00033
[2]; 313.15 K
  refractive index: 1.42591 ± 0.00033
[2]; 318.15 K
  refractive index: 1.4242 ± 0.00033
[2]; 323.15 K
  refractive index: 1.42246 ± 0.00033

## CCCO [propan-1-ol] + CCCCOC(=O)C(C)O
[3]; 288.15 K
  viscosity: 2.514 ± 0.024 mPa·s
  mass density: 807.752 ± 0.14 kg/m3
[3]; 293.15 K
  viscosity: 2.208 ± 0.021 mPa·s
  mass density: 803.767 ± 0.14 kg/m3
[3]; 298.15 K
  viscosity: 1.95 ± 0.019 mPa·s
  mass density: 799.755 ± 0.14 kg/m3
[3]; 303.15 K
  viscosity: 1.727 ± 0.017 mPa·s
  mass density: 795.717 ± 0.14 kg/m3
[3]; 308.15 K
  viscosity: 1.542 ± 0.015 mPa·s
  mass density: 791.638 ± 0.14 kg/m3
[3]; 313.15 K
  viscosity: 1.378 ± 0.014 mPa·s
  mass density: 787.521 ± 0.14 kg/m3
[3]; 318.15 K
  viscosity: 1.236 ± 0.013 mPa·s
  mass density: 783.357 ± 0.15 kg/m3
[3]; 323.15 K
  viscosity: 1.124 ± 0.012 mPa·s
  mass density: 779.137 ± 0.15 kg/m3
[4]; 288.15 K
  refractive index: 1.38751 ± 0.00033
[4]; 293.15 K
  refractive index: 1.38543 ± 0.00033
[4]; 298.15 K
  refractive index: 1.3834 ± 0.00033
[4]; 303.15 K
  refractive index: 1.38137 ± 0.00033
[4]; 308.15 K
  refractive index: 1.37918 ± 0.00033
[4]; 313.15 K
  refractive index: 1.37702 ± 0.00033
[4]; 318.15 K
  refractive index: 1.37482 ± 0.00033
[4]; 323.15 K
  refractive index: 1.37262 ± 0.00033

## OCCCO [propan-1,3-diol] + CCCCOC(=O)C(C)O
[3]; 288.15 K
  viscosity: 66.71 ± 0.68 mPa·s
  mass density: 1055.96 ± 0.27 kg/m3
[3]; 293.15 K
  viscosity: 52.02 ± 0.49 mPa·s
  mass density: 1052.86 ± 0.27 kg/m3
[3]; 298.15 K
  viscosity: 41.11 ± 0.41 mPa·s
  mass density: 1049.75 ± 0.27 kg/m3
[3]; 303.15 K
  viscosity: 32.89 ± 0.33 mPa·s
  mass density: 1046.63 ± 0.27 kg/m3
[3]; 308.15 K
  viscosity: 26.61 ± 0.26 mPa·s
  mass density: 1043.5 ± 0.26 kg/m3
[3]; 313.15 K
  viscosity: 21.76 ± 0.22 mPa·s
  mass density: 1040.35 ± 0.26 kg/m3
[3]; 318.15 K
  viscosity: 17.97 ± 0.18 mPa·s
  mass density: 1037.17 ± 0.26 kg/m3
[3]; 323.15 K
  viscosity: 14.97 ± 0.15 mPa·s
  mass density: 1033.98 ± 0.26 kg/m3
[4]; 288.15 K
  refractive index: 1.44072 ± 0.00037
[4]; 293.15 K
  refractive index: 1.43932 ± 0.00037
[4]; 298.15 K
  refractive index: 1.43793 ± 0.00037
[4]; 303.15 K
  refractive index: 1.43653 ± 0.00037
[4]; 308.15 K
  refractive index: 1.43512 ± 0.00037
[4]; 313.15 K
  refractive index: 1.43374 ± 0.00037
[4]; 318.15 K
  refractive index: 1.43232 ± 0.00037
[4]; 323.15 K
  refractive index: 1.43087 ± 0.00037

## OCCCO [propan-1,3-diol]
[1]; 288.15 K
  viscosity: 66.71 ± 0.68 mPa·s
  mass density: 1055.96 ± 0.27 kg/m3
[1]; 293.15 K
  viscosity: 52.02 ± 0.49 mPa·s
  mass density: 1052.86 ± 0.27 kg/m3
[1]; 298.15 K
  viscosity: 41.11 ± 0.41 mPa·s
  mass density: 1049.75 ± 0.27 kg/m3
[1]; 303.15 K
  viscosity: 32.89 ± 0.33 mPa·s
  mass density: 1046.63 ± 0.27 kg/m3
[1]; 308.15 K
  viscosity: 26.61 ± 0.26 mPa·s
  mass density: 1043.5 ± 0.26 kg/m3
[1]; 313.15 K
  viscosity: 21.76 ± 0.22 mPa·s
  mass density: 1040.35 ± 0.26 kg/m3
[1]; 318.15 K
  viscosity: 17.97 ± 0.18 mPa·s
  mass density: 1037.17 ± 0.26 kg/m3
[1]; 323.15 K
  viscosity: 14.97 ± 0.15 mPa·s
  mass density: 1033.98 ± 0.26 kg/m3
[2]; 288.15 K
  refractive index: 1.44072 ± 0.00037
[2]; 293.15 K
  refractive index: 1.43932 ± 0.00037
[2]; 298.15 K
  refractive index: 1.43793 ± 0.00037
[2]; 303.15 K
  refractive index: 1.43653 ± 0.00037
[2]; 308.15 K
  refractive index: 1.43512 ± 0.00037
[2]; 313.15 K
  refractive index: 1.43374 ± 0.00037
[2]; 318.15 K
  refractive index: 1.43232 ± 0.00037
[2]; 323.15 K
  refractive index: 1.43087 ± 0.00037

## CCCCOC(=O)C(C)O (stereo not drawn) [butyl 2-hydroxypropanoate]
[1]; 288.15 K
  viscosity: 4.628 ± 0.081 mPa·s
  mass density: 987.269 ± 1.8 kg/m3
[1]; 293.15 K
  viscosity: 3.88 ± 0.068 mPa·s
  mass density: 982.366 ± 1.8 kg/m3
[1]; 298.15 K
  viscosity: 3.307 ± 0.058 mPa·s
  mass density: 977.448 ± 1.8 kg/m3
[1]; 303.15 K
  viscosity: 2.85 ± 0.05 mPa·s and 2.86 ± 0.05 mPa·s
  mass density: 972.515 ± 1.8 kg/m3
[1]; 308.15 K
  viscosity: 2.481 ± 0.043 mPa·s
  mass density: 967.567 ± 1.8 kg/m3
[1]; 313.15 K
  viscosity: 2.181 ± 0.038 mPa·s
  mass density: 962.603 ± 1.8 kg/m3
[1]; 318.15 K
  viscosity: 1.935 ± 0.034 mPa·s
  mass density: 957.624 ± 1.7 kg/m3
[1]; 323.15 K
  viscosity: 1.728 ± 0.031 mPa·s
  mass density: 952.631 ± 1.7 kg/m3
[2]; 288.15 K
  refractive index: 1.42379 ± 0.00068
[2]; 293.15 K
  refractive index: 1.42152 ± 0.00068
[2]; 298.15 K
  refractive index: 1.41925 ± 0.00068
[2]; 303.15 K
  refractive index: 1.41697 ± 0.00068
[2]; 308.15 K
  refractive index: 1.41469 ± 0.00068 and 1.4147 ± 0.00068
[2]; 313.15 K
  refractive index: 1.4124 ± 0.00068 and 1.41241 ± 0.00068
[2]; 318.15 K
  refractive index: 1.41006 ± 0.00068 and 1.41005 ± 0.00068
[2]; 323.15 K
  refractive index: 1.40778 ± 0.00068

## CC(O)CO (stereo not drawn) [1,2-propanediol] + CCCCOC(=O)C(C)O
[3]; 288.15 K
  viscosity: 82.54 ± 0.87 mPa·s
  mass density: 1039.87 ± 0.1 kg/m3
[3]; 293.15 K
  viscosity: 59.62 ± 0.52 mPa·s
  mass density: 1036.25 ± 0.099 kg/m3
[3]; 298.15 K
  viscosity: 44.03 ± 0.39 mPa·s
  mass density: 1032.56 ± 0.097 kg/m3
[3]; 303.15 K
  viscosity: 33.16 ± 0.3 mPa·s
  mass density: 1028.88 ± 0.095 kg/m3
[3]; 308.15 K
  viscosity: 25.45 ± 0.23 mPa·s
  mass density: 1025.14 ± 0.093 kg/m3
[3]; 313.15 K
  viscosity: 19.85 ± 0.18 mPa·s
  mass density: 1021.35 ± 0.092 kg/m3
[3]; 318.15 K
  viscosity: 15.73 ± 0.14 mPa·s
  mass density: 1017.52 ± 0.09 kg/m3
[3]; 323.15 K
  viscosity: 12.64 ± 0.11 mPa·s
  mass density: 1013.66 ± 0.088 kg/m3
[4]; 288.15 K
  refractive index: 1.43437 ± 0.00033
[4]; 293.15 K
  refractive index: 1.4327 ± 0.00033
[4]; 298.15 K
  refractive index: 1.43102 ± 0.00033
[4]; 303.15 K
  refractive index: 1.42934 ± 0.00033
[4]; 308.15 K
  refractive index: 1.42764 ± 0.00033
[4]; 313.15 K
  refractive index: 1.42591 ± 0.00033
[4]; 318.15 K
  refractive index: 1.4242 ± 0.00033
[4]; 323.15 K
  refractive index: 1.42246 ± 0.00033
